Assay results reported in US5876676A, “Preservation of blood platelets” (priority 1996, dated 1999).
Starred links: 1 amine or outer side, 2 acyl side, 3 side chain; linkers in the order of their positions; H or OH if unused. Positions of bridges follow the written chain, without caps; N, C: chain ends. Non-standard residues stand in square brackets, D forms with d. Residues, ends and D or L forms follow the SMILES beside them. Trp(2-yl) = O=C([C@H](Cc1c([*:3])[nH]c2ccccc12)N[*:1])[*:2]; Leu(4R-OH,5-OH) = C[C@](O)(CO)C[C@H](N)C(=O)O; cisHyp = O=C(O)[C@@H]1C[C@H](O)CN1

Columns and labels:
[1] = system: platelets; experiment: Nucleation activity in lysates from Quin-2-loaded, thrombin-activated platelets; type: cell-based, human
Description: Human blood from healthy volunteers, drawn into 0.1 vol of Aster-Jandl anticoagulant, was centrifuged at 110 g for 10 min. The platelet-rich plasma was gel-filtered through a Sepharose 2B column equilibrated and eluted with a solution containing 145 mM NaCl, 10 mM Hepes, 10 mM glucose, 0.5 mM Na2 HPO4, 5 mM KCl, 2 mM MgCl2, and 0.3% BSA, pH 7.4 (platelet buffer). 2 U/ml apyrase was added to the platelet suspension and the cells were left standing for 60 min. at 37° C. as previously reported (Hartwig, J., and M. DeSisto, 1991 J. Cell Biol. 112:407-425; Hartwig, J., et al. 1989 J. Cell Biol. 109:1571-1579). To maintain cytosolic calcium at or below its resting level during cell activation, cells were loaded with 30 uM Quin-2AM during minutes 30-60 of the rest period. The effect of Quin-2 was reversed by the addition of 1 mM CaCl2 to the bathing media before centrifugation of the Quin 2-loaded cells onto the coverslips or after the cells had been attached and formed filopodia on the coverslip. Glass-adherent, Quin-2 loaded cells were also treated with 1 mM CaCL2 and 20 nM of the ionophore A23187 for 15 seconds (s) and then detergent permeabilized. […]
The effect of cell lysates on the rate and extent of pyrene-labeled rabbit skeletal muscle actin was determined as described previously (Hartwig, J., and P. Janmey, 1989 Biochim. Biophys. Acta. 1010:64-71). […] The relative contribution of nuclei with barbed or pointed ends in the cell lysates was determined by adding 2 uM cytochalasin B to the pyrene nucleation assay system. […] To determine if the measured stimulation of actin assembly and its decay with time was due to the growth of pyrene-actin addition onto cellular filaments subject to depolymerization in the diluted lysate, 0.1 uM phalloidin or phallacidin was added to the cell lysates during their preparation to stabilize the filaments. […] However, we also determined that the soluble phase from cells permeabilized with detergent in the presence of EGTA contained calcium dependent nucleation activity. […]

[2] = system: platelets; experiment: Morphology and cytoskeleton of Quin-2-loaded platelets, resting or activated (light and electron microscopy); type: cell-based, human
Description: Human blood from healthy volunteers, drawn into 0.1 vol of Aster-Jandl anticoagulant, was centrifuged at 110 g for 10 min. The platelet-rich plasma was gel-filtered through a Sepharose 2B column equilibrated and eluted with a solution containing 145 mM NaCl, 10 mM Hepes, 10 mM glucose, 0.5 mM Na2 HPO4, 5 mM KCl, 2 mM MgCl2, and 0.3% BSA, pH 7.4 (platelet buffer). 2 U/ml apyrase was added to the platelet suspension and the cells were left standing for 60 min. at 37° C. as previously reported (Hartwig, J., and M. DeSisto, 1991 J. Cell Biol. 112:407-425; Hartwig, J., et al. 1989 J. Cell Biol. 109:1571-1579). To maintain cytosolic calcium at or below its resting level during cell activation, cells were loaded with 30 uM Quin-2AM during minutes 30-60 of the rest period. The effect of Quin-2 was reversed by the addition of 1 mM CaCl2 to the bathing media before centrifugation of the Quin 2-loaded cells onto the coverslips or after the cells had been attached and formed filopodia on the coverslip. Glass-adherent, Quin-2 loaded cells were also treated with 1 mM CaCL2 and 20 nM of the ionophore A23187 for 15 seconds (s) and then detergent permeabilized. In some cases, platelets were used directly from platelet-rich plasma by diluting it 1:20 with platelet buffer containing, in addition, 0.1 mM EGTA and 2 U/ml apyrase. The diluted cells were incubated for 30 min. at 37° C. to insure a resting state.
Platelet suspensions were activated by the addition of 1 U/ml of thrombin (hereafter called thrombin-activated) for 15-30 seconds in studies of nucleation activity. Activation was terminated by permeabilizing the cells as detailed below. Glass activation was used for the morphological studies. Cells were glass-activated by centrifugation onto polylysine-coated glass coverslips at 250 g for 5 min. Coverslips were placed in the bottom of multiwell plates (24 or 96 wells), covered with 0.25 ml of platelet suspension, and centrifuged at 37° C. in a Sorvall HB-6000 centrifuge using multiwell carriers.
Light microscopy and electron microscopy of platelets and cytoskeletons were performed according to standard methods, see e.g., Hartwig, J., 1992, J. Cell Biol. 118(6):1421-1442. The localization of gelsolin in platelets was performed by gold labeling of cytoskeletons from resting and activated cells with antibodies to gelsolin. The affinity-purified goat anti-rabbit macrophage gelsolin IgG was described earlier (Hartwig, J., and M. DeSisto, 1991 J. Cell Biol. 112:407-425; Hartwig, J., and P. Shevlin, 1986 J. Cell Biol. 103:1007-1020).

[3] = Quin-2-loaded platelets, glass activated

C[C@@H]1NC(=O)[C@H](C[C@@](C)(O)CO)NC(=O)[C@@H]2Cc3c([nH]c4ccccc34)SC[C@H](NC(=O)[C@@H]([C@H](C)O)NC1=O)C(=O)N1C[C@@H](O)C[C@H]1C(=O)N[C@@H](C)C(=O)N2 [phalloidin] (cyclo(A[dT]C[cisHyp]A[Trp(2-yl)][Leu(4R-OH,5-OH)]); thioether 3-6)
Effect on nucleation activity in lysates from Quin-2-loaded cells ([1]; 0.1 uM phalloidin in lysates, Quin-2-loaded, thrombin-activated): no effect

CNc1ccc2oc(C[C@H]3O[C@@]4(CC[C@H]3C)O[C@H]([C@H](C)C(=O)c3ccc[nH]3)[C@H](C)C[C@H]4C)nc2c1C(=O)O [A23187]
Cytoskeletons of Quin-2-loaded, glass-activated cells after external calcium plus ionophore ([2]; added external calcium (1 mM CaCl2) with 20 nM A23187, within seconds): completely disrupted

COc1cc(N(CC(=O)OCOC(C)=O)CC(=O)OCOC(C)=O)c2nc(COc3cc(C)ccc3N(CC(=O)OCOC(C)=O)CC(=O)OCOC(C)=O)ccc2c1 [Quin-2AM, acetoxymethyl ester of quin-2]
Effect on structure of resting cells and their cytoskeletons ([2]; 30 uM Quin-2AM loading, light microscope): no effect | Swelling, actin filament severing and extension of lamellipodial networks associated with platelet activation ([2]; quin-2AM prior to activation with thrombin): prevented

COc1cc(N(CC(=O)O)CC(=O)O)c2nc(COc3cc(C)ccc3N(CC(=O)O)CC(=O)O)ccc2c1 [Quin-2]
activity at 30 µM ([1]; Homo sapiens, Platelet, Quin-2-loaded, thrombin-activated, assayed immediately, read-out: Nucleation activity relative to lysates from untreated and activated cells): 28% | Stability of nucleation activity in detergent lysates ([1]; Quin-2-loaded cells, lysates incubated as long as 10 min before assay): no loss in its activity | Rearrangements of gelsolin on activation (immunoelectron microscopy) ([2]; Quin-2-loaded and activated cells): did not occur | Filopodia length [2, 3]: 2-5 um | Morphology after glass activation [2, 3]: extend filopodia but not lamellipodia
